PMC4917206, “Chemical Modification of Influenza CD8+ T-Cell Epitopes Enhances Their Immunogenicity Regardless of Immunodominance” (PLoS ONE, 2016)

How the values were obtained:
[1] = system: CD8+ T cells of HLA-A2+ human donors; type: cell-based
[2] = system: splenocytes of WT-vaccinated HLA-A2 tg mice; type: cell-based, mouse; design: key to response compared with WT peptide control, mouse splenocytes: *: Lower response than WT peptide
[3] = target: T1, HLA-A*0201 (Homo sapiens, UniProt P04439, D140Y/D185E/D98H/E176V/E277Q/G131W/G231S/I119V/I121R/I166T/I218V/L300P/L318F/N151K/N90K/P208A/P217A/Q86G/Q94H/R138H/R169H/T345S); type: binding
T1 construct: Soluble MHC was dissolved in PBS containing 0.5 mg/ml bovine γ-globulin; made in house

[4] = target: T2, HLA-A*0301 (Homo sapiens, UniProt P04439); type: binding; settings: for FP binding score HLA-A*0301, percentage inhibition, 4h: after 4h; for FP binding score HLA-A*0301, percentage inhibition, 24h: after 24h
T2 construct: Soluble MHC was dissolved in PBS containing 0.5 mg/ml bovine γ-globulin; made in house

| Substance | FP binding score, percentage inhibition of tracer peptide binding, 4h [4] [%] | FP binding score, percentage inhibition of tracer peptide binding, 24h [4] [%] | other results |
| --- | --- | --- | --- |
| FMYSDFHF[2-AOC] [F19] | – | – | DC model: IFN-γ-positive CD8+ T cells, Average [1]: 0.07; rank by T cell activation, DC model [1]: Lower 3; Mouse splenocytes (ex vivo assay), Average [2]: 62; FP binding score, percentage inhibition of tracer peptide binding, 4h [3]: 87%; FP binding score, percentage inhibition of tracer peptide binding, 24h [3]: 86% |
| FMYSDFHF[CHA] [F49] | – | – | DC model: IFN-γ-positive CD8+ T cells, Average [1]: 0.18; rank by T cell activation, DC model [1]: Upper 3; Mouse splenocytes (ex vivo assay), Average [2]: 60; rank by T cell activation, mouse splenocytes [2]: Lower 3; FP binding score, percentage inhibition of tracer peptide binding, 4h [3]: 88%; FP binding score, percentage inhibition of tracer peptide binding, 24h [3]: 86% |
| F[2-AOC]YSDFHFI [F143] | – | – | Mouse splenocytes (ex vivo assay), Average [2]: 92; rank by T cell activation, mouse splenocytes [2]: Upper 3; response compared with WT peptide control, mouse splenocytes [2]: F143 ^*; FP binding score, percentage inhibition of tracer peptide binding, 4h [3]: 93%; FP binding score, percentage inhibition of tracer peptide binding, 24h [3]: 91% |
| NMLSTVLG[CpALA] [N122] | – | – | Mouse splenocytes (ex vivo assay), Average [2]: 128; FP binding score, percentage inhibition of tracer peptide binding, 4h [3]: 65%; FP binding score, percentage inhibition of tracer peptide binding, 24h [3]: 60% |
| RMVLSAF[CpALA]ER [R42] | 65 | 73 | – |
| RMVLSAF[NLE]ER [R36] | 66 | 73 | – |
| RMVLSAF[ORN]ER [R41] | 65 | 63 | – |
| RMVLSAF[PRG]ER [R39] | 62 | 62 | FP binding score HLA-A*0301, percentage inhibition, 4h [4]: 62%; FP binding score HLA-A*0301, percentage inhibition, 24h [4]: 62% |
| RM[2-AOC]LSAFDER [R50] | 70 | 66 | – |
| RM[4-FPHE]LSAFDER [R55] | 70 | 65 | – |
| RM[OrnN2]LSAFDER [R83] | 71 | 72 | – |
| R[AHA]VLSAFDEK [R2] | 58 | 67 | – |
| R[AHA]VLSAF[2-AOC]ER [R67] | 74 | 78 | – |
| R[AHA]VLSAF[4-FPHE]ER [R68] | 67 | 64 | – |
| R[AHA]VLSAF[SOME]ER [R66] | 63 | 63 | FP binding score HLA-A*0301, percentage inhibition, 4h [4]: 63%; FP binding score HLA-A*0301, percentage inhibition, 24h [4]: 63% |
| R[NVA]VLSAFDKR [R59] | 62 | 68 | – |
| R[NVA]VLSAF[2-AOC]ER [R71] | 71 | 82 | – |
| R[NVA]VLSAF[4-FPHE]ER [R72] | 68 | 72 | – |
| R[NVA]VLSAF[SOME]ER [R70] | 64 | 74 | – |
| SFSFGGFTK [S WT, reference compound] | 67 | 58 | – |
| SF[4-FPHE]FGGFTK [S84] | 82 | 95 | – |
| S[AHA]RFGGFTK [S54] | 80 | 92 | – |
| S[NVA]RFGGFTK [S53] | 80 | 93 | – |
| S[NVA]SFGGFHK [S56] | 78 | 91 | – |
| S[NVA]SFGGF[AHA]K [S90] | 78 | 90 | – |

| Substance | FP binding score, percentage inhibition of tracer peptide binding, 4h [4] [%] | FP binding score, percentage inhibition of tracer peptide binding, 24h [4] [%] | other results |
| --- | --- | --- | --- |
| S[NVA]SFGGF[TOME]K [S92] | 80 | 92 | – |
| S[NVA]SFGG[2-AOC]TK [S70] | 90 | 96 | – |
| S[NVA]SFGG[2-FUR]TK [S76] | 75 | 91 | – |
| S[NVA]SFGG[4-FPHE]TK [S72] | 79 | 93 | – |
| S[NVA]SFGG[BPG]TK [S73] | 73 | 91 | – |
| S[NVA]SFGG[CpALA]TK [S74] | 78 | 94 | – |
| S[NVA]SFGG[NLE]TK [S68] | 79 | 93 | – |
| S[NVA]SFGG[NVA]TK [S69] | 72 | 91 | – |
| S[NVA]SFGG[PRG]TK [S71] | 70 | 90 | – |
| S[NVA][2-AOC]FGGFTK [S50] | 83 | 94 | – |
| S[NVA][4-FPHE]FGGFTK [S95] | 80 | 93 | – |
| S[NVA][AHA]FGGFTK [S52] | 80 | 93 | – |
| S[NVA][CSME]FGGFTK [S93] | 80 | 93 | – |
| S[NVA][CpALA]FGGFTK [S96] | 76 | 91 | – |
| S[NVA][NLE]FGGFTK [S94] | 80 | 93 | – |
| [2-AOC][AHA]RGSVAHK [I17] | 61 | 89 | – |
| [2-AOC][NLE]RGSVAHK [I60] | 72 | 91 | – |
| [AHA][NLE]RGSVAHK [I53] | 73 | 91 | – |
| [BCA][2-AOC]YSDFHFI [F112] | – | – | Mouse splenocytes (ex vivo assay), Average [2]: 86; FP binding score, percentage inhibition of tracer peptide binding, 4h [3]: 92%; FP binding score, percentage inhibition of tracer peptide binding, 24h [3]: 91% |
| [CSET][2-AOC]YSDFHFI [F118] | – | – | Mouse splenocytes (ex vivo assay), Average [2]: 81; FP binding score, percentage inhibition of tracer peptide binding, 4h [3]: 95%; FP binding score, percentage inhibition of tracer peptide binding, 24h [3]: 93% |
| [CSME][AHA]RGSVAHK [I61] | 71 | 90 | – |
| [OM-HS][2-AOC]LSTVLGV [N91] | – | – | Mouse splenocytes (ex vivo assay), Average [2]: 344; FP binding score, percentage inhibition of tracer peptide binding, 4h [3]: 91%; FP binding score, percentage inhibition of tracer peptide binding, 24h [3]: 87% |
| [SOME]MLSTVLGV [N61] | – | – | Mouse splenocytes (ex vivo assay), Average [2]: 348; FP binding score, percentage inhibition of tracer peptide binding, 4h [3]: 62%; FP binding score, percentage inhibition of tracer peptide binding, 24h [3]: 54% |
| [THR-BZL][2-AOC]YSDFHFI [F141] | – | – | Mouse splenocytes (ex vivo assay), Average [2]: 67; FP binding score, percentage inhibition of tracer peptide binding, 4h [3]: 94%; FP binding score, percentage inhibition of tracer peptide binding, 24h [3]: 93% |
